Reference: US20250205276A1, “COMPOSITIONS AND METHODS OF TREATMENT OF DISEASE USING COMBINATION OF A NITRODILATOR AND A NITROGEN OXIDE COMPOUND” (LOMA LINDA UNIVERSITY, priority 2022, published 2025)
Like-named read-outs stand apart in the source and are kept apart here.

How the values were obtained:
sGC-cGMP pathway = experiment: Potentiation of nitrodilator vasodilation by sGC-cGMP pathway agents in vitro; type: cell-based
Text: In certain embodiments, the combined application of a nitrodilator and a nitrogen oxide compound is affected by a perturbation in the sGC-cGMP pathway. Vasodilation mediated by the nitrodilator and/or nitrogen oxide compound can be further facilitated by agents that enhance the sGC-cGMP pathway. Such agents include sGC stimulators and activators, cGMP-phosphodiesterase inhibitors, and others. The sGC stimulators directly activate reduced-heme-containing sGC that generates cGMP to cause vasodilation. The sGC activators activate sGC when the heme is oxidized or the heme moiety is missing. A sGC stimulator can be riociguat or vericiguat. The sGC activator can be runcaciguat, cinaciguat, ataciguat, or kynurenine. The cGMP-phosphodiesterase inhibitors, such as sildenafil, vardenafil, and tadalafil, stabilize cGMP via preventing its degradation by phosphodiesterase-5. […] Certain embodiments include methods of treating a vascular condition or a respiratory condition in a human subject by administering a therapeutically effective amount of a nitrogen oxide compound and a cGMP-phosphodiesterase inhibitor. […] The potentiation effects of riociguat and sildenafil on vasodilation by nitrodilators including GSNO have been confirmed in vitro.

sheep carotid artery = experiment: Mobilization of N15-NOx from sheep carotid artery by intraluminal GSNO (GC-MS); settings: 2 h, vs control
Method: FIG. 4A is an illustration of the protocol. A sheep carotid artery (length 8 cm) was incubated with 10 μM N^15-nitrite in DMEM under 10.5% O2 for 6 h to load the vessel with N^15-NOx (NO metabolites). FIG. 4B is an illustration of the prepared vessels. After extensive washes, the arteries were well sealed and incubated for 2 h with 3 ml 100 μM oxyhemoglobin in HEPES buffer on the extraluminal side and 5 μM GSNO or control (0.7 ml HEPES buffer containing 0.1 mM DTPA) on the luminal side. FIG. 4C is a graphical representation of the response of the arteries exposed to GSNO. The N^15-NOx levels were lower (p=0.0206) in the homogenate of arteries exposed to GSNO. FIG. 4D is a graphical representation of the response of the arteries exposed to intraluminal GSNO. The N^15-NOx in extraluminal buffer was higher (p=0.0400) in the arteries exposed to intraluminal GSNO. N^15-NOx was measured by GC-MS. The results are consistent with intraluminal GSNO stimulating an efflux of NOx from the vascular smooth muscle as manifested by a decrease in intracellular NOx and an increase in extracellular NOx.
DNICs function as an intracellular NO store. NO can be stored as DNICs in ferritin, a cytosolic protein that stores and releases iron in controlled fashion. […] N^15-NOx was measured by GC-MS. […]

[1] = not told
intact sheep = experiment: Femoral vasodilation in intact sheep treated with L-NAME; type: in vivo; settings: for femoral vasodilation in response to the SNO: sheep treated with L-NAME
intact rats = experiment: Femoral vasodilation in intact rats treated with L-NAME; type: in vivo; settings: for femoral vasodilation in response to the SNO: rats treated with L-NAME
[2] = test system: isolated sheep femoral arteries; experiment: Use-dependent loss of vasodilatory response to GSNO in isolated arteries, potentiation and reversal; type: cell-based
Method: To increase the store experimentally, isolated sheep femoral arteries were pre-exposed to 1 μM nitrite, a concentration two-to-three orders of magnitude below which nitrite itself causes vasodilation.

[3] = cited from earlier work; for membrane permeability in words: Hogg et al
[4] = test system: mesenteric vasculature of rats; experiment: Mesenteric vasodilatory response to nitrodilators after chronic pretreatment of rats; type: in vivo; settings: for effect of pretreatment on mesenteric vasodilatory response to nitrodilators: pretreatment for four days
Method: (§1) Likewise, NTG has been thought to activate sGC by releasing the NO moiety from its nitrate group via the action of enzymes such as aldehyde dehydrogenase-2. However, this conversion produces nitrite rather than NO, especially at therapeutic NTG concentrations (<1 μM).

[5] = test system: isolated sheep mesenteric arteries; experiment: Relaxation of endothelium-denuded sheep mesenteric arteries contracted with 5-HT; type: cell-based; settings: for enabling of inhibition of vasodilation by CPTIO: SOD1 1000 U/ml, converts HNO into NO
Method: Isolated sheep mesenteric arteries were denuded of endothelium and contracted with 10 μM 5-HT (n=5). FIG. 5A presents examples of relaxation traces (one animal, six arterial strips) of NTG in the absence and presence of an sGC inhibitor (ODQ) (10 μM) or superoxide dismutase (SOD1) (1000 U/ml, converts HNO into NO), or the extracellular NO scavenger CPTIO (200 μM), or SOD1 and CPTIO together. All traces were normalized for comparison of extent of relaxation.
FIG. 5B is a graphical representation of the amplification of the area in the red circle in ‘A’. FIG. 5C is a graphical representation of the effects of SOD1, CPTIO, SOD1+CPTIO, and ODQ on relaxation in response to Nitroglycerin. FIG. 5D is a graphical representation of the effects of SOD1, CPTIO, and SOD1+CPTIO on relaxation in response to nitrosoglutathione (GSNO). SOD1, via putative conversion of HNO to NO, enables the inhibitory effects of CPTIO on relaxation caused by NTG and GSNO.
As discussed above, there are reasons to doubt whether NO itself is the mediator of sGC activation in the NANOS model. Rather, an equivalent of NO may be released by activation of the NANOS. […] The NO equivalent has HNO-like characteristics. […] Isolated sheep mesenteric arteries were denuded of endothelium and contracted with 10 μM 5-HT (n=5). FIG. 5A presents examples of relaxation traces (one animal, six arterial strips) of NTG in the absence and presence of an sGC inhibitor (ODQ) (10 μM) or superoxide dismutase (SOD1) (1000 U/ml, converts HNO into NO, or the extracellular NO scavenger CPTIO (200 μM), or SOD1 and CPTIO together. All traces were normalized for comparison of extent of relaxation. FIG. 5B is a graphical representation of the amplification of the area in the red circle in ‘A’. FIG. 5C is a graphical representation of the effects of SOD1, CPTIO, SOD1+CPTIO, and ODQ on relaxation in response to Nitroglycerin (NTG). FIG. 5D is a graphical representation of the effects of SOD1, CPTIO, and SOD1+CPTIO on relaxation in response to nitrosoglutathione (GSNO). SOD1, via putative conversion of HNO to NO, enables the inhibitory effects of CPTIO on relaxation caused by NTG and GSNO.

[6] = Ability to release NO / stability
coronary arteries = test system: coronary arteries
Text: SNOs, DNICs, heme-NO, nitroprusside, NTG, and other nitrodilators, dilate vessels via activation of soluble guanylyl cyclase (sGC) in vascular smooth muscle cells. These nitrodilators have potent NO-mimetic vasoactivities despite not releasing requisite amounts of free NO. These nitrodilators activate sGC via a preformed NANOS found within the vascular smooth muscle cell. Other examples of the nitrodilators include, but are not limited to, isosorbide dinitrate, isosorbide mononitrate, and nitrosyl complexes with metals or metalloproteins with metals other than iron.

newborn lambs = settings: low micromolar intravenous nitrite
isolated arteries = experiment: Vasodilation of isolated arteries (potency, sustainability); type: cell-based; settings: read-out: EC50 (vasodilatory sensitivity)
Method: as §1

COC(=O)N(C)c1c(N)nc(-c2nn(Cc3ccccc3F)c3ncccc23)nc1N [riociguat]
effect on vasodilation by nitrodilators including GSNO (sGC-cGMP pathway): potentiation

N[C@@H](CCC(=O)N[C@@H](CSN=O)C(=O)NCC(=O)O)C(=O)O [GSNO, S-nitroso-glutathione]
N15-NOx levels in homogenate of arteries (sheep carotid artery; 5 μM GSNO luminal side, p=0.0206): lower
N15-NOx in extraluminal buffer (sheep carotid artery; 5 μM intraluminal GSNO, p=0.0400): higher
Membrane permeability [1]: −
femoral vasodilation in response to the SNO (intact sheep): greatly diminished or even absent
femoral vasodilation in response to the SNO (intact rats): greatly diminished or even absent
loss of initial vasodilatory response to GSNO ([2]; isolated vessels, after repeated exposures to GSNO): ~50%
membrane permeability in words [3]: largely membrane-impermeable
membrane permeability, fold less than L-cysNO ([3]; relative to L-cysNO): 200 fold

CNC(=N)NCCC[C@H](N)C(=O)O [L-NMMA]
effect of pretreatment on mesenteric vasodilatory response to nitrodilators [4]: not observed

CC1(C)CC(O)CC(C)(C)N1[O] [TEMPOL]
enabling of inhibition of vasodilation by CPTIO [5]: enable the inhibitory effects of CPTIO

CC1(C)N([O])C(c2ccc(C(=O)O)cc2)=[N+]([O-])C1(C)C [CPTIO]
effect on NTG- or GSNO-mediated relaxation ([5]; CPTIO 200 μM): does not affect

CCCc1nn(C)c2c(=O)[nH]c(-c3cc(S(=O)(=O)N4CCN(C)CC4)ccc3OCC)nc12 [sildenafil]
effect on vasodilation by nitrodilators including GSNO (sGC-cGMP pathway): potentiation

COC(=O)[C@H](N)CCCNC(=N)N[N+](=O)[O-] [D-NAME, D-NG-Nitro arginine methyl ester]
effect of chronic pretreatment on mesenteric vasodilation by GSNO, glut-BDNIC and NTG [4]: potentiated
effect of pretreatment on mesenteric vasodilatory response to nitrodilators [4]: potentiated

N[C@H](CSN=O)C(=O)O [D-cysNO]
Membrane permeability [1]: −
femoral vasodilation in response to the SNO (intact sheep): greatly diminished or even absent
femoral vasodilation in response to the SNO (intact rats): greatly diminished or even absent
membrane permeability in words [3]: largely membrane-impermeable

COC(=O)[C@@H](N)CCCNC(=N)N[N+](=O)[O-] [L-NAME]
effect of chronic pretreatment on mesenteric vasodilation by GSNO, glut-BDNIC and NTG [4]: potentiated
effect of pretreatment on mesenteric vasodilatory response to nitrodilators [4]: potentiated

[Cl][Cu] [CuCl]
enabling of inhibition of vasodilation by CPTIO [5]: enable the inhibitory effects of CPTIO

SOD1: superoxide dismutase, converts HNO into NO
enabling of inhibition of vasodilation by CPTIO [5]: enables inhibition of vasodilation by CPTIO

N[C@@H](CSN=O)C(=O)O [L-cysNO, S-nitrosocysteine]
NO moiety released ([6]; over one hour, presence of metal chelator in PBS): < 10%
stability, fold less stable than GSNO ([6]; relative to GSNO): 10 fold
Membrane permeability [1]: +
femoral vasodilation in response to the SNO (intact sheep): greatly diminished or even absent
femoral vasodilation in response to the SNO (intact rats): greatly diminished or even absent
membrane permeability in words [3]: can be taken up into cells via the L-type amino acid transporter (LAT)

O=NO [nitrite]
effect on NTG tolerance of coronary arteries (coronary arteries; in vitro): reverting NTG tolerance
effect on NTG tolerance of coronary arteries (coronary arteries; in vivo): reverting NTG tolerance
effect on GSNO-mediated vasodilation (newborn lambs): potentiate
effect on vasodilatory responses to subsequent SNO infusions in femoral arteries (intact sheep; sheep pre-treated with L-NAME, intravenous sub-vasodilatory nitrite): potentiated
effect on vasodilatory responses to subsequent SNO infusions in femoral arteries (intact rats; rats pre-treated with L-NAME, intravenous sub-vasodilatory nitrite): potentiated
effect on vasodilatory responses to GSNO ([2]; arteries pre-exposed to 1 μM nitrite): potentiate
attenuation of vasodilatory response to GSNO after repeated GSNO exposure ([2]; subsequent incubation with 1 μM nitrite for 30 min): reversed

O=[N+]([O-])OCC(CO[N+](=O)[O-])O[N+](=O)[O-] [NTG, nitroglycerin]
Membrane permeability [1]: +
EC50 (isolated arteries): < 100 nM

C=CC1=C(C)c2cc3[n-]c(cc4[n-]c(cc5nc(cc1n2)C(C)=C5C=C)c(C)c4CCC(=O)[O-])c(CCC(=O)[O-])c3C.N#[O+].[Fe].[H+].[H+] [Heme-NO, nitrosyl-heme]
Membrane permeability [1]: −
